Assay results: patent publication US20070203248A1, “Cardioprotective agents” (DABUR RESEARCH FOUNDATION., priority 2003, published 2007)
Several values for one entry are separate records, joined by “and”; a condition that tells them apart may be missing. Identical values can stand only once. Like-named read-outs stand apart in the source and are kept apart here.

Legend:
[1] = DPPH free radical scavenging assay in vitro; assay type: biochemical; conditions: for Mean percent Radical scavenging: DPPH, 5 minutes
Procedure: The free radical scavenging potential of 5-Methoxytryptamine was evaluated by the 1,1 diphenyl-2 picryl hydrazyl (DPPH) assay as described (Hycon, Lee et al, Arch. Pharm. Res. 19 (3), 223-227). […] 5-Methoxytryptamine was dissolved in 3.5% ethanol in normal saline and screened for its radical scavenging activity in concentration ranging from 1-1000 ug/ml. 100 ul of 0.2 mM DPPH was incubated with 100 ul of varying concentrations of 5-Methoxy tryptamine in 96 well tissue culture plates for 20 seconds at room temperature. All experiments were carried out in triplicates. 3.5% ethanol in normal saline was similarly incubated with 0.2 mM DPPH in control experiments for evaluating the effect of the vehicle on radical scavenging. The change in absorbance of DPPH incubated with varying concentrations of 5-Methoxy tryptamine of the vehicle was read at 517 nm for every 60 secs for 5 minutes. The absorbance of 0.2 mM DPPH taken after incubating for 5 minutes at room temperature was the blank O.D. The percent free radical scavenging ability of 5-Methoxy tryptamine was calculated as defined below. Percent Free Radical scavenging=Blank OD at 5 minutes−Sample OD at 5 minutes×100/Blank OD at 5 minutes

human tumour cell lines = assay: MTT cytotoxicity assay, effect of 5-Methoxytryptamine on anticancer activity of Adriamycin; assay type: cell-based; conditions: 5-Methoxytryptamine at its highest concentration 1 ug/ml; MCF7, DU145, MiaPaCa2, HT 29
Procedure: Adriamycin was dissolved in saline immediately before use. […] 1 ug/ml.

[2] = test system: Adriamycin treated rat myocardium; conditions: for LP (lipid peroxidation), myocardium: 24 hours
Text: The effect of 5-Methoxytryptamine on lipid peroxidation in Adriamycin treated myocardial tissue was quantitated by Thiobarbituric acid reactive substances based assay as described (Uchiyama and Mihara, M., Anal. Biochem. 86, 271-278, 1978). Briefly male Wistar rats of the age group 5-6 weeks were maintained on normal rat pellets ad libitum. Rats were divided into four groups viz Groups I, II, III and IV.
Group II, Animals treated with Adriamycin
(§1) Group III: Animals treated with 5-Methoxytryptamine and Adriamycin.
(§2) Group IV: Animals treated with 5 Methoxytryptamine
Each group consisted of 5 animals. 30 mg/kg body weight of Adriamycin was administered intraperitoneally to animals in Groups II and III. The animals comprising group III, were injected intraperitoneally with 5-Methoxytryptamine in concentration ranging from 8.5-35 mg/kg body weight 30 minutes prior to the Adriamycin treatment. The animals comprising group IV, were injected intraperitoneally with 5-Methoxytryptamine in concentration ranging from 8.5-35 mg/kg body weight. 24 hours later, the beating hearts of the animals were excised by decapitation. The heart tissue was washed in ice cold saline twice, weighed and snap frozen at −70° C. for assaying for Lipid peroxidation.
Briefly 200 mg of the live rat myocardial tissue was excised and homogenized in 2 ml of ice cold 10% Trichloro acetic acid buffer (TCA) buffer. To 200 ul of the homogenate thus obtained, 200 ul of 8.1% SDS, 1.5 ml of 20% Acetic acid, 1.5 ml of 0.8% of Thiobarbituric acid (TBA) and 1.0 ml of water was added in glass test tubes. The tubes were heated at 95° C. for 60 minutes. The mixture was cooled and diluted with 1 ml of double distilled water. A mixture of n-butanol and pyridine was prepared fresh in the ratio of 15:1 respectively. 5 ml of the n-butanol-pyridine mix was added to each tube containing the cardiac tissue homogenates. The tubes were centrifuged at 3000 rpm for 10 minutes at 4° C. 200 ul of the coloured liquid was collected from at the interphase of the aqueous and organic layers and the absorbance was measured spectrophotometrically at 532 nm. The control experiments contained only the TCA buffer treated similarly. The standard tubes contained Malonaldehyde in concentrations ranging from 2.5-25 uM. Malonaldehyde was dissolved in double distilled water. All experiments were carried out in triplicates. The extent of lipid peroxidation in the cardiac homogenates was expressed as uM/gm of the cardiac tissue. The extent of lipid peroxidation was calculated for the cardiac tissues of the animals comprising Groups I, II, III and IV.

[3] = test system: Adriamycin treated rat myocardium; conditions: for SOD (Superoxide Dismutase), myocardium: 24 hours
Procedure: (§3) Briefly male Wistar rats of the age group 5-6 weeks were maintained on normal rat pellets ad libitum. Rats were divided into four groups viz. Groups I, II, III and IV.
(§4) Group II: Animals treated with Adriamycin
Each group consisted of 5 animals. 30 mg/kg body weight of Adriamycin was administered intraperitoneally to animals in Groups II and III. […] 24 hours later, the beating hearts of the animals were excised by decapitation. The heart tissue was washed in ice cold saline twice, weighed and frozen for assaying Superoxide Dismutase activity.
Briefly, 200 mg of rat myocardial tissue was excised and homogenized in 2 ml of ice cold Tris sucrose buffer (pH 7.4). The homogenate was centrifuged at 10000 rpm, at 4° C. for 10 minutes, and the supernatent carefully aspirated and collected. For each experiment, 1.2 ml of sodium pyrophosphate buffer was taken in clean glass tubes. To this 100 ul of 186 uM Phenazine methosulphate solution, 300 ul of a 300 uM solution of Nitroblue tetrazolium and 600 ul of double distilled water was added and mixed well. 600 ul of the supernatent obtained earlier was added per tube. A solution of NADH of the concentration 780 uM was freshly prepared for the experiments. The reaction in the tubes was initiated by the addition of 200 ul of a 780 uM solution of NADH per tube. The tubes were incubated for 90 seconds at room temperature. The reaction was stopped by the addition of 1 ml of 100% glacial acetic acid per tube and the absorbance measured spectrophotometrically at 560 nM. All experiments were carried out in triplicates. The control experiments contained only ice cold Tris Sucrose buffer (pH 7.4) treated identically. The standard tubes contained the enzyme Superoxide Dimutase dissolved in double distilled water in concentrations ranging from 0.1 U to 20 Units treated identically as above. The enzyme activity in the tissue homogenates was quantitated by rate of decrease in optical density at 560 nm, and expressed as units/mg protein. The Superoxide Dismutase activity was calculated for the cardiac tissues of the animals comprising Groups I, II, III and IV.

[4] = test system: Adriamycin treated rat liver tissue; conditions: for LP (lipid peroxidation), liver: 24 hours
Procedure: as §3, §4, §1
Group IV: Animals treated with 5-Methoxytryptamine
Each group consisted of 5 animals. 30 mg/kg body weight of Adriamycin was administered intraperitoneally to animals in Groups II and III. The animals comprising group III, were injected intraperitoneally with 5-Methoxytryptamine in concentrations ranging from 8.5-35 mg/kg body weight 30 minutes prior to the Adriamycin treatment. The animals comprising group IV, were injected intraperitoneally with 5-Methoxytryptamine in concentrations ranging from 8.5-35 mg/kg body weight. 24 hours later, the liver tissue of the animals were excised. The liver tissue was washed in ice cold saline twice, weighed and snap frozen at −70° C. for assaying for Lipid peroxidation.
Briefly 200 mg of the rat liver tissue was excised and homogenized in 2 ml of ice cold 10% Trichloro acetic acid buffer (TCA) buffer. To 200 ul of the homogenate thus obtained, 200 ul of 8.1% SDS, 1.5 ml of 20% Acetic acid, 1.5 ml of 0.8% of Thiobarbituric acid (TBA) and 1.0 ml of water was added in glass test tubes. The tubes were heated at 95° C. for 60 minutes. The mixture was cooled and diluted with 1 ml of double distilled water. A mixture of n-butanol and pyridine was prepared fresh in the ratio of 15:1 respectively. 5 ml of the n-butanol-pyridine mix was added to each tube containing the liver tissue homogenates. The tubes were centrifuged at 3000 rpm for 10 minutes at 4° C. 200 ul of the colored liquid was collected from the interphase of the aqueous and organic layers and the absorbance was measured spectrophotometrically at 532 nm. The control experiments contained only the TCA buffer treated similarly. The standard tubes contained Malonaldehyde in concentrations ranging from 2.5-25 uM. Malonaldehyde was dissolved in double distilled water. All experiments were carried out in triplicates. The extent of lipid peroxidation in the liver homogenates was expressed as uM/gm of the liver tissue. The extent of lipid peroxidation was calculated for the liver tissues of the animals comprising Groups I, II, III and IV.

[5] = test system: Adriamycin treated animals
Procedure: The effect of 5-Methoxy tryptamine on circulating CK-MB levels was quantitated as described. Briefly male Wistar rats of the age group 5-6 weeks were maintained on normal rat pellets ad libidum. Rats were divided into four groups viz. Groups I, II, III and IV.
as §4
(§5) Group III: Animals treated with Adriamycin and 5-Methoxytryptamine
Group IV: Animals treated with 5-Methoxytryptamine.
Each group consisted of 6 animals. 5 mg/kg of Adriamycin was administered intraperitoneally to animals of groups II and III as two equal divided doses once every seven days. The animals comprising Group III were injected intraperitoneally with 17.5 mg/kg of 5-Methoxytryptamine, as seven equal doses given every alternate day. The animals of the group III were injected with 5-Methoxytryptamine, 30 minutes prior to the Adriamycin injection. The animals comprising Group IV were treated with 17.5 mg/kg of 5-Methoxytryptamine as seven equal doses, given every alternate day. At the 41st day of the study, blood was collected from the retroorbital vein of all the animals in the study. The blood was kept at room temperature for 15 minutes, and spun at 3000 rpm for 15 minutes. […] The quantitation was carried out by kits procured from Bayer Diagnostics using RA 50 Chemistry Analyzer (Bayer Diagnostics), as per the manufacturers instructions.

[6] = test system: Adriamycin treated animals; remark: listed apart in the source
Procedure: The effect of 5-Methoxytryptamine on circulating LDH levels was quantitated as described. Briefly male Wistar rats of the age group 5-6 weeks were maintained on normal rat pellets ad libidum. Rats were divided into four groups viz. Groups I, II, III and IV.
as §4, §5, §2
Each group consisted of 6 animals. 5 mg/kg of Adriamycin was administered intraperitoneally to animals of groups II and III as two equal divided doses once every seven days. The animals comprising Group III were injected intraperitoneally with 17.5 mg/kg of 5-Methoxytryptamine, as seven equal doses given every alternate day. The animals of the group III were injected with 5-Methoxytryptamine, 30 minutes prior to the Adriamycin injection. The animals comprising Group IV were treated with 17.5 mg/kg of 5-Methoxytryptamine as seven equal doses, given every alternate day. At the 41st day of the study, blood was collected from the retroorbital vein of all the animals in the study. The blood was kept at room temperature for 15 minutes, and spun at 3000 rpm for 15 minutes. […] The quantitation was carried out by kits procured from Bayer Diagnostics using RA 50 Chemistry Analyzer (Bayer Diagnostics), as per the manufacturer's instructions.

[7] = 8.5-35 mg/kg, 30 mg/kg doxorubicin
[8] = Group IV A: 5 MT 8.5 mg/kg i.p. alone
[9] = Group IV B: 5 MT 17 mg/kg i.p. alone
[10] = Group IV C: 5 MT 35 mg/kg i.p. alone
[11] = Group IV: 5-Methoxytryptamine 17.5 mg/kg as seven doses every alternate day, alone, serum, day 41

With COc1ccc2[nH]cc(CCN)c2c1 [5-Methoxytryptamine] the “Mean percent Radical scavenging” value ([1]; 31 ug/ml) was 10 ± 4.3%, the “Mean percent Radical scavenging” value ([1]; 62.5 ug/ml) was 25 ± 5.0% and the “Mean percent Radical scavenging” value ([1]; 125 ug/ml) was 75.4 ± 5.5%. For the same compound, the “Mean percent Radical scavenging” value ([1]; 250 ug/ml) was 85.24 ± 4.8%, the “Mean percent Radical scavenging” value ([1]; 500 ug/ml) was 87.4 ± 5.0% and the “Mean percent Radical scavenging” value ([1]; 1000 ug/ml) was 88.25% and 88.25 ± 5.1%. For the same compound, the “Concentration range in which free radicals are scavenged” value ([1]; DPPH in vitro) was 31 to 1000 µg/mL, the “Effect of addition on ED50 values of the cytotoxicity of Adriamycin” value (human tumour cell lines) was “is not altered” and the “Effect on lipid peroxidation in rat myocardial tissue, alone” value ([2]; 8.5-35 mg/kg alone) was “did not alter the lipid peroxidation”. For the same compound, the “Effect on lipid peroxidation in rat myocardial tissue treated with doxorubicin” value [2, 7] was “inhibits the lipid peroxidation”, the “LP (lipid peroxidation), myocardium” value [2, 8] was 535 ± 12.5 µmol/g and the “LP (lipid peroxidation), myocardium” value [2, 9] was 500 ± 14.5 µmol/g. For the same compound, the “LP (lipid peroxidation), myocardium” value [2, 10] was 513 ± 12.3 µmol/g, the “Effect on Superoxide Dismutase activity in rat myocardium, alone” value ([3]; 8.5-35 mg/kg alone) was “did not alter the Superoxide Dismutase activity” and the “Effect on Superoxide Dismutase activity in rat myocardium treated with Doxorubicin” value [3, 7] was “increases the Superoxide Dismutase activity”. For the same compound, the “SOD (Superoxide Dismutase), myocardium” value [3, 8] was 32 ± 2.5 U/mg, the “SOD (Superoxide Dismutase), myocardium” value [3, 9] was 30 ± 2.9 U/mg and the “SOD (Superoxide Dismutase), myocardium” value [3, 10] was 34 ± 4.5 U/mg. For the same compound, the “Effect on lipid peroxidation in rat liver tissue, alone” value ([4]; 8.5-35 mg/kg alone) was “does not alter the lipid peroxidation”, the “LP (lipid peroxidation), liver” value [4, 8] was 601 ± 16.5 µmol/g and the “LP (lipid peroxidation), liver” value [4, 9] was 625 ± 15.5 µmol/g. The “LP (lipid peroxidation), liver” value [4, 10] was 630 ± 16.3 µmol/g, the “Effect on CK-MB levels in Adriamycin treated animals” value ([5]; 17.5 mg/kg, Adriamycin 5 mg/kg) was “reduces the CK-MB levels” and the “CK - MB” value [5, 11] was 379 ± 26 U/L. For the same compound, the “Effect on LDH levels in Adriamycin treated animals” value ([6]; 17.5 mg/kg, Adriamycin 5 mg/kg) was “reduces the LDH levels” and the LDH [6, 11] was 1009 ± 26 U/L.
